Among the data in ChEMBL document CHEMBL1201862, “PubChem BioAssay data set” (2004) are IC50 and AC50 values, retold here.

Active and inactive are the calls of the source. Bounds are passed on as bounds.

Test [1] has as its target Cysteine protease ATG4B (Homo sapiens, UniProt Q9Y4P1). Type of test: functional.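 Note: Fluorescence-based dose-response confirmation assay measuring inhibition of ATG4B activity.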
The target of test [2] is Phospholipase A2 (Homo sapiens, UniProt P04054). The test is classed as functional.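 Note: confirmatory dose-response counterscreen on phospholipase A2, testing hits that came from an ultra-high-throughput screen for ATG4B inhibitors.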
Sequence of Phospholipase A2 (P04054 whole entry): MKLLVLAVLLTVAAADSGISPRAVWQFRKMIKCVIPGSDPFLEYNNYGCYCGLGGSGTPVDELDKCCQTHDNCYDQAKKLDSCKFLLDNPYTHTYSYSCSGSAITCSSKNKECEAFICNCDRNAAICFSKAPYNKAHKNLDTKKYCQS
For test [3], the target named is Dual specificity tyrosine-phosphorylation-regulated kinase 1A (Rattus norvegicus, UniProt Q63470). The test is classed as biochemical, Homo sapiens.
Test [4] deals with T1, Hexokinase HKDC1 (Homo sapiens, UniProt Q2TB90).
T1 sequence (Q2TB90 whole entry): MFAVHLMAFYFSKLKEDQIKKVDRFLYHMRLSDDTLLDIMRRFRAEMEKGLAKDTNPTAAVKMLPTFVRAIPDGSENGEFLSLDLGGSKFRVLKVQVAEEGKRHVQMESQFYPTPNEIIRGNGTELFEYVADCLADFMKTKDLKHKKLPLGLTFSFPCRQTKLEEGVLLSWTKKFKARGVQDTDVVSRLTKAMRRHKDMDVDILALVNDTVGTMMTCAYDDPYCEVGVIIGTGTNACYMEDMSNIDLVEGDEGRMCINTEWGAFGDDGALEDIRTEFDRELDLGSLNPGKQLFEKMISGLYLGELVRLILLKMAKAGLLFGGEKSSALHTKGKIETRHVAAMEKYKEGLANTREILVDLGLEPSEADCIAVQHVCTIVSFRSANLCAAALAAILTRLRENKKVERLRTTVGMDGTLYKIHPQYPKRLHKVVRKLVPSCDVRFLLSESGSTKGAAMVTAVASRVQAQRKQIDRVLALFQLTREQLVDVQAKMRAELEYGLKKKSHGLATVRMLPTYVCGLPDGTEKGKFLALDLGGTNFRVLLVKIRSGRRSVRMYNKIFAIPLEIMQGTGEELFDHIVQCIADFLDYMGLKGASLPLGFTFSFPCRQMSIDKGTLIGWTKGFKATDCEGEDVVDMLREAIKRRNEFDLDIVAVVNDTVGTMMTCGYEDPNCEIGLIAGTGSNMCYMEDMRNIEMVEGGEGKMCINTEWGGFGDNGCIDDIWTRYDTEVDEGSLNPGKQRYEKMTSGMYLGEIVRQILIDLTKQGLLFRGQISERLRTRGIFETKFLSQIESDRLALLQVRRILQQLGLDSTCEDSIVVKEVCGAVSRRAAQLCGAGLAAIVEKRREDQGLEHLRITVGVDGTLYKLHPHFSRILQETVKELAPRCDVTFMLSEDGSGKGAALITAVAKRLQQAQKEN
The experiment in a line: HKDC1 hexokinase inhibitors, dose response, biochemical, W721R variant (AID 504729). The test is classed as functional.

Test [5] addresses T2, Long-chain-fatty-acid--AMP ligase FadD28 (Mycobacterium tuberculosis, UniProt P9WQ59).
T2 sequence (P9WQ59 whole entry): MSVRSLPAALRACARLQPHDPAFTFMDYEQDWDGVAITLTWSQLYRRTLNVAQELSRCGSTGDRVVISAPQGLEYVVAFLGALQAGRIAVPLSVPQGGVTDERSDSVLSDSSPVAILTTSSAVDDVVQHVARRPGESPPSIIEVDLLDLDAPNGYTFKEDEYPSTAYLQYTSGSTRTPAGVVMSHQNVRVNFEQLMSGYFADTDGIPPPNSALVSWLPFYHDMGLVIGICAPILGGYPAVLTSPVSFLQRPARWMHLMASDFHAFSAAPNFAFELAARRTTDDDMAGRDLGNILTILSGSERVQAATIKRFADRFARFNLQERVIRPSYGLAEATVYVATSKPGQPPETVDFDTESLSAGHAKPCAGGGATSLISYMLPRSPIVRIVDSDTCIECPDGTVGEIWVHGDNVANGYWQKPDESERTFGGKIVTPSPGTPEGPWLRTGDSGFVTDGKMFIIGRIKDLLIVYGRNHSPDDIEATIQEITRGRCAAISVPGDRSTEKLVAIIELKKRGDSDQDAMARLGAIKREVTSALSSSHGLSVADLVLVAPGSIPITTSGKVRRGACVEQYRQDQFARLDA
Nature of the test: Fluorescence polarization aasay to screen for inhibitors that compete for the binding of FadD28 to a bisubstrate Measured in Biochemical System Using Plate Reader - 2147-01_Inhibitor_Dose_CherryPick_Activity. The test is classed as functional, Mycobacterium tuberculosis H37Rv. (In general: In fluorescence polarisation assays a small probe gives low polarisation when free and higher when bound to something large.)

Test [6] has as its target Glucose-6-phosphate 1-dehydrogenase (Homo sapiens, UniProt P11413). Nature of the test: human G6PD enzyme inhibitors, dose response, selectivity assay for P. falciparum G6PD inhibitor project, biochemical, fluorescence (AID 504792). Type of test: functional.
Test [7] addresses Genome polyprotein (dengue virus type 2, UniProt P29990). Nature of the test: Dengue-2 NS5 methyltransferase inhibitors, primary screen, biochemical, confirmation dose response (AID 588689). The test is classed as functional.
For test [8], the target named is T3, Polyadenylate-binding protein 1 (Homo sapiens, UniProt P11940). The experiment in a line: PABP1 MLLE–PAM2 binding inhibitor potency, dose response, biochemical, fluorescence polarization, FITC-PAM2 peptide (AID 602259). The test is classed as functional. To be noted: read-out: IC50_Mean.
T3 sequence (P11940 whole entry): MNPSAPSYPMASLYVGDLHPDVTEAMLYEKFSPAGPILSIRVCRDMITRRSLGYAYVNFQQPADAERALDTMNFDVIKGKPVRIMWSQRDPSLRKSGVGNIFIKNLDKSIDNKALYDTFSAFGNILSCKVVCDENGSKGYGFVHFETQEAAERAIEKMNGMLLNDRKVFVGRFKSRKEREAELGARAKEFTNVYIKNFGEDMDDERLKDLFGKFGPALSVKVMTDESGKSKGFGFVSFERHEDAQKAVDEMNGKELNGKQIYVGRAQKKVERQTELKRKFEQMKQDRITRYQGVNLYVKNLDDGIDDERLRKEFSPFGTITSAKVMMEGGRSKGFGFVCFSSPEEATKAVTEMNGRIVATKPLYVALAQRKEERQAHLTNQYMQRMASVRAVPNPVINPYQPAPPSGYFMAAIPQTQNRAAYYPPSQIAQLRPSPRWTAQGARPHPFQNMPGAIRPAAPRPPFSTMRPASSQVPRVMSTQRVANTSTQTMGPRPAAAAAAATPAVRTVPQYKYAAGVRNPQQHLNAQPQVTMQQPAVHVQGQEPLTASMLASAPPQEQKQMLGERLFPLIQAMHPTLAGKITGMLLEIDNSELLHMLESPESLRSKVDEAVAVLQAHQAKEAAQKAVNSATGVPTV
Test [9] deals with T3, Polyadenylate-binding protein 1. Nature of the test: PABP1 MLLE–PAM2 interaction inhibitors, dose response, miRNA deadenylation inhibitor project, biochemical, fluorescence polarization, Cy5-PAM2 peptide, secondary (AID 602260). The test is classed as functional. The settings on record: read-out: IC50_Mean.
Test [10] has as its target Voltage-gated inwardly rectifying potassium channel KCNH2 (Homo sapiens, UniProt Q12809). To be noted: Potency.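 Note: confirmatory quantitative high-throughput screen measuring inhibition of hERG channel activity.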

Sequence of Cysteine protease ATG4B (Q9Y4P1 whole entry): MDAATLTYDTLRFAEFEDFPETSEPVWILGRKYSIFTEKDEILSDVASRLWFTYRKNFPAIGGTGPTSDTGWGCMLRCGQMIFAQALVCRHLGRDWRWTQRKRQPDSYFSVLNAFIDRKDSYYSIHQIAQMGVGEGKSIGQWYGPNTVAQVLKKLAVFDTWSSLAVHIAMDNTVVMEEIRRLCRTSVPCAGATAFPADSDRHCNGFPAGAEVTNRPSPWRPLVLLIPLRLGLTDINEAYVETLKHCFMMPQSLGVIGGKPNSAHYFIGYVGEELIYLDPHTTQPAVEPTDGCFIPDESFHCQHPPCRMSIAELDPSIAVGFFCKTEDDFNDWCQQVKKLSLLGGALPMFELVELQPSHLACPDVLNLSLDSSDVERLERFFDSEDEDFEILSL
Sequence of Genome polyprotein (P29990 2492-3391 limits assumed): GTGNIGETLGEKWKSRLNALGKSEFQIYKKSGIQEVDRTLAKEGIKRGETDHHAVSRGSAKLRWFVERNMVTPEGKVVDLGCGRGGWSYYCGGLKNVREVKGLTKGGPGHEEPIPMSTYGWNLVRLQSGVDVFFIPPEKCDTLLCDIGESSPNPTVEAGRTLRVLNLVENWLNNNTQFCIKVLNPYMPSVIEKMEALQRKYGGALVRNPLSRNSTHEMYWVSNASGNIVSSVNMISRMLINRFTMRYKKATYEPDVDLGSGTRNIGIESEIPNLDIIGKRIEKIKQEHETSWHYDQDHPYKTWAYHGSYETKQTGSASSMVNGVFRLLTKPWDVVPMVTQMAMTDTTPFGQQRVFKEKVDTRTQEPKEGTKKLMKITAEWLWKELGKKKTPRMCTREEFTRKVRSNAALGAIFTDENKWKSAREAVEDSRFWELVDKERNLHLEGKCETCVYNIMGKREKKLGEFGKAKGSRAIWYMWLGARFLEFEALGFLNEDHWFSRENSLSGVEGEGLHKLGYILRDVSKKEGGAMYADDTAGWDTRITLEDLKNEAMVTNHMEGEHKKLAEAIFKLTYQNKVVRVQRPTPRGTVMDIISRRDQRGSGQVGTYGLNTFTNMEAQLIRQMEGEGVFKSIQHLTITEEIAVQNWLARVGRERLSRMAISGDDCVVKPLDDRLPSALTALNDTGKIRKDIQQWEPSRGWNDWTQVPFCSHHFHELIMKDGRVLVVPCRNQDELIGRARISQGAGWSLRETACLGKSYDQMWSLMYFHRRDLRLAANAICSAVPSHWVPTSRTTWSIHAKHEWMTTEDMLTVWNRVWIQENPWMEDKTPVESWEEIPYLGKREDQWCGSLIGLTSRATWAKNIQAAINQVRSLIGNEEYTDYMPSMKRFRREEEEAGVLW
Sequence of Glucose-6-phosphate 1-dehydrogenase (P11413 whole entry): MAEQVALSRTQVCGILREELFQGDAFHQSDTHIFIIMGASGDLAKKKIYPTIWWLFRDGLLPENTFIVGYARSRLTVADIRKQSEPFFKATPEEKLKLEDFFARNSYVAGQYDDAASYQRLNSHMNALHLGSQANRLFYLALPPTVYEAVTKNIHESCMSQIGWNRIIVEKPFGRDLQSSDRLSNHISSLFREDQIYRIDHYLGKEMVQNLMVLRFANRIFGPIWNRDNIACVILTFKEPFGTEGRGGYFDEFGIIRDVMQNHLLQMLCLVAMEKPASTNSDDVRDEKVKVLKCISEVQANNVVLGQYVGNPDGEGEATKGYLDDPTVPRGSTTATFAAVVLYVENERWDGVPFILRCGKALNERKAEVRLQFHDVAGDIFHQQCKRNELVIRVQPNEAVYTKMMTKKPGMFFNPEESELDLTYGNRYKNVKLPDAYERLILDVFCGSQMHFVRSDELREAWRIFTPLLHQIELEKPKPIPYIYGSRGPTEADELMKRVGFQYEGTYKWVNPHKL
Sequence of Voltage-gated inwardly rectifying potassium channel KCNH2 (Q12809 whole entry): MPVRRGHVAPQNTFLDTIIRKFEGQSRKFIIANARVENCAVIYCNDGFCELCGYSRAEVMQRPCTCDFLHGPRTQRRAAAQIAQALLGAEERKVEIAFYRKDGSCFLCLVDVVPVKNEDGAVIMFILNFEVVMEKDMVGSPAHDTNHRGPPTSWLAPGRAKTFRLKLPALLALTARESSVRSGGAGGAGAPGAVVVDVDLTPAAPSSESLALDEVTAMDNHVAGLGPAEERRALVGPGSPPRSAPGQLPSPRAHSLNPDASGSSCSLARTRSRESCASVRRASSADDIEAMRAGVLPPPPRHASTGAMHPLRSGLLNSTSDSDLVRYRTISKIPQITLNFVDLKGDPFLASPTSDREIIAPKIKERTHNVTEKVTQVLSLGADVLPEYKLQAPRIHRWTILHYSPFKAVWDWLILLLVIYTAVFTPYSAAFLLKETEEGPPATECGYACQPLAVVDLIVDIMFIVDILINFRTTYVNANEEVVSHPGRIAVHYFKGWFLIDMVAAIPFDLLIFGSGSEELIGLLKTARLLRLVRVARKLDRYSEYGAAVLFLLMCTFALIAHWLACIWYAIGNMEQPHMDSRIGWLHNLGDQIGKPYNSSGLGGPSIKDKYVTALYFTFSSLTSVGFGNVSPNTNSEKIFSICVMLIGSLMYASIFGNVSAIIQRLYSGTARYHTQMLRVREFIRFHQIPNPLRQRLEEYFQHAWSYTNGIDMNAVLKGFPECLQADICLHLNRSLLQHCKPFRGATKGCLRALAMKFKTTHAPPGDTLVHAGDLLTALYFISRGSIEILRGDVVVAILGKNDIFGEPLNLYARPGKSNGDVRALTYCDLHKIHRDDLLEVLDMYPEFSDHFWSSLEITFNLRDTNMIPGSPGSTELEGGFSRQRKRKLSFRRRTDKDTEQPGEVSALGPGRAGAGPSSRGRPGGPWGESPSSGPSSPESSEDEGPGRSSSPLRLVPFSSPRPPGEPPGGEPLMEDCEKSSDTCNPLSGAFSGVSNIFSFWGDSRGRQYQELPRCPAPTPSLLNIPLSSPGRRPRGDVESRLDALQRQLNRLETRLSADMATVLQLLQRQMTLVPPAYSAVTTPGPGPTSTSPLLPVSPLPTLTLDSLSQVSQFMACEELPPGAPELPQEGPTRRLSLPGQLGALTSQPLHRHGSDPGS

Take `O=c1c2ccccc2nc(/C=C/c2ccc(O)cc2)n1CCc1ccccc1`: the IC50 was 17.2 µM (active) in test [1] and 12.2 µM (active) in test [2].

With `COc1ccc2c3c([nH]c2c1)C(C)N(CCC(=O)NN)CC3` (configuration not stated), the concentration at half-maximal activity (AC50) in test [3] is 1.45 µM (active).

Regarding `Nc1ccc(S(=O)(=O)c2cc(O)c3ccccc3c2O)cc1`, the IC50 in test [4] was 18.1 µM (active); in [6], > 80 µM (inactive); in test [7] it was 5.47 µM (active). Moreover, in [5], the AC50 is > 100 µM (inactive).

With `Cc1ccc(-n2c(SCC(=O)N/N=C/c3c(C)nn(-c4ccccc4)c3C)nc3ccccc3c2=O)cc1`, the IC50 in [8] was > 66 µM (inactive); in test [1], 14.2 µM (active); in test [2] it was 1.86 µM (active); in test [9], > 66 µM (inactive).

Take `CCc1ccc(C(c2ccc(CC)cc2)C(Cl)Cl)cc1`: in [10], the AC50 was 22.4 µM (inconclusive).

For orientation: AC50 means the concentration giving half of the maximal activity seen.
